This assay deals with severe itching. The protocol: One capsule of a κ-opioid agonist 17-cyclopropylmethyl-3, 14β-dihydroxy-4,5α-epoxy-6β-(N-methyl-trans-3-(3-furyl)acrylamide) morphinan hydrochloride capsule (10 μg/body) was administered to each of the selected patients. […] To quantitatively determine the severity of itching, visual analogue scale (VAS) was employed, in which the severity of itching was determined on a straight line of 0 to 100 mm where no itching was rated as “0” and the supposable most severe itching was rated as “100”.

From patent publication US6984493B1, “Method for examining the involvement of opioid peptides in prurtis” (Toray Industries, Inc., priority 2000, dated 2006) come the findings set out here.

As to `CN(C(=O)/C=C/c1ccoc1)[C@@H]1CC[C@@]2(O)[C@H]3Cc4ccc(O)c5c4[C@@]2(CCN3CC2CC2)[C@H]1O5.Cl` (relative stereo) [17-cyclopropylmethyl-3, 14β-dihydroxy-4,5α-epoxy-6β-(N-methyl-trans-3-(3-furyl)acrylamide) morphinan hydrochloride], the “visual analogue scale (VAS) of severity of itching, mean of the four subjects” value (after 4 to 24 hours from the administration, one capsule 10 μg/body, four patients with severe itching, VAS 75 mm before administration, scale 0 to 100 mm) stood at 0 mm. In addition, the relief of itching entry (after two hours from the administration, all administered patients (four), one capsule 10 μg/body) is recorded as “itching was relieved”. For the same molecule, the “antipruritic effect on administration (summary statement referring to Example 2)” value (as shown in Example 2) is given as “apparent antipruritic effect”. Under “time from the administration, all administered patients (four), one capsule 10 μg/body”, the “duration of antipruritic effect (continued until)” value is 24 h.
